Holding throughout (type): cell-based, Lacticaseibacillus paracasei YIT 9029
Assay [1] deals with LcS. The assay is described as follows: cF excretion activity by addition of various saccharides of LcS (cFDA/PI double staining, flow cytometry). The following applies: LcS from New Yakult suspended in 1% saccharide solution; cFDA 50 μM, PI 30 μM. The method, then:
(§1) A beverage or food containing LcS (New Yakult: manufactured by Yakult Honsha Co., Ltd.) stored at about 4° C. within 16 days after production was diluted 10-fold with DPBS, then washed by centrifugation three times with DPBS, and the cell pellet was collected. The cell pellet obtained above was suspended in a 1% (V/W) solution in which a saccharide shown in Table 1 was dissolved in purified water. Further, the suspension was diluted with DPBS so that the cell concentration in the suspension was about 10^6 cells/mL, and cFDA was added thereto at a final concentration of 50 μM, and the resultant was left to stand at 30° C. for 15 minutes. Subsequently, propidium iodide was added thereto at a final concentration of 30 μM, and the resultant was left to stand at room temperature for 15 minutes, and then subjected to FACSAriaTM fusion (manufactured by Becton Dickinson) to measure the cF fluorescence intensity. A case where 90% or more of the total bacterial cells were counted as cF^- was determined to have cF excretion activity. In Table 1, those determined to have cF excretion activity are indicated by +, and those determined to have no cF excretion activity are indicated by -. The assimilation of a saccharide was examined using AP[…] (manufactured by bioMérieux Japan Co., Ltd.), which is a kit for identifying bacteria. A saccharide that can be assimilated by LcS is indicated by +, and a saccharide that cannot be assimilated by LCS is indicated by -.

Assay [2] has as its system LcS. Nature of the assay: Assimilation of a saccharide examined using API50cH. Further details: key: A saccharide that can be assimilated by LcS is indicated by +; a saccharide that cannot be assimilated by LCS is indicated by −. Conditions: assimilation by LcS, API50cH kit. As for the experimental part:
as §1, with “The” for “A beverage or food containing LcS (New Yakult: manufactured by Yakult Honsha Co., Ltd.) stored at about 4° C. within 16 days after production was diluted 10-fold with DPBS, then washed by centrifugation three times with DPBS, and the cell pellet was collected. The”

For assay [3], the system named is LcS. Nature of the assay: Time course of cF accumulation and cF excretion of LcS. The method, then: A cultured bacterial solution of LcS in MRS medium was washed by centrifugation with Dulbecco's PBS (DPBS: manufactured by Thermo Fisher Scientific, Inc.), thereby removing saccharides. CFDA was added to the DPBS suspension of LcS obtained above at a final concentration of 50 μM (t=0), and cF accumulation from 0 to 20 minutes thereafter was examined by Gallios. In addition, to the DPBS suspension of LcS obtained above, CFDA was added at a final concentration of 50 μM, and the resultant was left to stand at 30° C. for 30 minutes to allow cF to accumulate in the bacterial cells. Subsequently, glucose was added at a final concentration of 10 mM (t=0), and cF excretion in 15 minutes thereafter was examined. Further, to the DPBS suspension of LcS obtained above, CFDA was added at a final concentration of 50 μM, and the resultant was left to stand at 30° C. for 30 minutes to allow cF to accumulate in the bacterial cells. Subsequently, glucose was added at a final concentration of 0.001 mM, 0.01 mM, 0.1 mM, or 1 mM (t=0), and cF excretion in 15 minutes thereafter was examined.

`O=C(CO)[C@@H](O)[C@H](O)[C@@H](O)CO` [L-sorbose]: the cF excretion activity entry in the assay with LcS [1] is listed as “− (those determined to have no cF excretion activity are indicated by −)”. Besides, the Assimilability entry in the assay on LcS [2] is “+”.
As for `C[C@H](O)[C@H](O)[C@@H](O)[C@@H](O)C=O` [L-rhamnose], the cF excretion activity entry in the assay with LcS [1] is given as “− (those determined to have no cF excretion activity are indicated by −)”. In the assay with LcS [2], the Assimilability entry is recorded as “−”.
For `O=C[C@H](O)[C@@H](O)[C@@H](O)[C@H](O)CO` [D-galactose] the same measures were “+ (A case where 90% or more of the total bacterial cells were counted as cF^− was determined to have cF excretion activity)” and “+”.
In the case of `O=C[C@H](O)[C@@H](O)[C@@H](O)CO` [L-arabinose], in the assay on LcS [1], the cF excretion activity entry is recorded as “− (those determined to have no cF excretion activity are indicated by −)”. In addition, the Assimilability entry in the assay on LcS [2] was “−”.
For `OC[C@H]1O[C@@](CO)(O[C@H]2O[C@H](CO)[C@@H](O)[C@H](O)[C@H]2O)[C@@H](O)[C@@H]1O` [sucrose] the same measures were “− (those determined to have no cF excretion activity are indicated by −)” and “+”.
On to carboxyfluorescein diacetate [cFDA], for which, in the assay with LcS [3] (cFDA 50 μM, no sugar, DPBS suspension of LcS), the “time after which cF accumulation amount was almost saturated” value amounted to 20 min.
As for `O=CC[C@@H](O)[C@@H](O)[C@H](O)CO` [2-deoxy-D-galactose], in the assay with LcS [1], the cF excretion activity entry is reported as “− (those determined to have no cF excretion activity are indicated by −)”.
As to `O=C[C@H](O)[C@@H](O)[C@H](O)[C@H](O)CO` [D-glucose], the cF excretion activity result with LcS [1] is “+ (A case where 90% or more of the total bacterial cells were counted as cF^− was determined to have cF excretion activity)”. The Assimilability entry with LcS [2] is “+”. Moreover, the cF excretion result with LcS [3] (glucose final concentration 0.001 mM) was “significant delay in excretion”; in the assay with LcS [3] (glucose final concentration 0.01 mM), “slight delay in excretion”. In the assay with LcS [3] (glucose final concentration 10 mM, LcS with cF accumulated in advance), the “time after which cF began to be rapidly excreted” value is recorded as “about 3 minutes”.
Take `O=C[C@@H](O)[C@@H](O)[C@H](O)[C@H](O)CO` [D-mannose]: the cF excretion activity entry in the assay with LcS [1] was “+ (A case where 90% or more of the total bacterial cells were counted as cF^− was determined to have cF excretion activity)”. In addition, the Assimilability entry with LcS [2] is given as “+”.
For `OC[C@H]1O[C@@H](O[C@H]2[C@H](O)[C@@H](O)C(O)O[C@@H]2CO)[C@H](O)[C@@H](O)[C@H]1O` (stereo partly shown) [Lactose] the same measures were “− (those determined to have no cF excretion activity are indicated by −)” and “+”.
Turning to `O=CC[C@@H](O)[C@H](O)[C@H](O)CO` [2-deoxy-D-glucose], the cF excretion activity result with LcS [1] is given as “− (those determined to have no cF excretion activity are indicated by −)”.

The values above are taken from patent US20240247298A1, “METHOD FOR DETECTING LIVE LACTIC ACID BACTERIA WITH CARBOHYDRATE METABOLISM ACTIVITY” (KABUSHIKI KAISHA YAKULT HONSHA, priority 2021, published 2024).
